Reference: EP0938338B1, “CARRIER COMPOSITION FOR INFLUENCING THE TIGHT JUNCTION PERMEABILITY” (Ghyssaert, Joris Rosa Michael, priority 1996, dated 1998)
≈ marks a conversion by molar mass, not a printed value.

How the values were obtained:
[1] = system: large intestine; assay: Colon perfusion: secretory effect of rhein (water, sodium, K+) and its antagonism; format: in vivo
[2] = system: blood glucose level; assay: Hollow suppositories with insulin, blood glucose versus intramuscular injection (set up 2); format: in vivo, rabbits; conditions: uncoupler in suppository mass (3 mg, 3 mg, 1.5 mg); insulin in physiological saline
Procedure: Therefore experiments were carried out on rabbits. Male rabbits were immobilised in a metal cage allowing free access to the anal region and the auricular arteries of both ears. In these experiments narcosis was not essential. The sampled blood volume was 0.5 ml.
Small hollow suppositories were made with dimensions ± 2 cm, φ 0.5 cm. The suppositories were filled with […] ™ (Novo Nordisk) 100 I.U./ml in the appropriate dilution with physiological saline. The anal region was secured with adhesive tape.
The following concentrations were used 0.1 I.U./kg body weight, 0.5 I.U./kg body weight, 1.0 I.U./kg body weight.
As the content of the suppository was approximately 0.6 ml, 450 µl (at the highest dose) of the Insulin solution was mixed with 150 µl normal saline.
For these experiments Insulin from bovine pancreas (activity 41.67 µg = 1 I.U.) Fluka was solved in 0.6 ml bidistilled water. The experiment was carried out as outlined above.

[3] = system: blood glucose level; assay: Rectal perfusion of insulin, blood glucose versus intramuscular injection (set up 1); format: in vivo, guinea pigs and rats; conditions: uncoupler added to perfusion, total concentration 0.5 mg
Procedure: The resorption of Insulin has been monitored by the lowering of the blood glucose level versus an intramuscular injection of an equivalent dose. Glucose was monitored while the determination is simple and inexpensive. However, on several experiments the Insulin level was measured by RIA (Radio Immuno Assays) methods.
Initially the resorption of Insulin was monitored following a perfusion on anaesthetised animals. Anaesthesia was induced by abdominal injection of Ethylurethane (0.9 g/kg).
The circulating solution was principally isotonic Sodium chloride (physiological saline) to which the appropriate Insulin was added in order to obtain the required concentrations.
The used Insulin was […]™ (Novo Nordisk); Human Biosynthetic Insulin.
The perfusion itself was executed on a new developed manner in order to allow a perfusion without an operation. Blood was sampled on the jugular vein.
The device used allows an easy rectal application. It allows an exact positioning and an identical length of perfused colon.
The total circulating fluid was 8 ml. As tubing Isoversinic was used. At intervals 50 µl blood was sampled and used for the glucose determinations. These perfusion experiments were carried out on guinea pigs and rats. […]

[4] = system: paracellular route; assay: Blockade by TAP of the 1,8-dihydroxyanthraquinone-increased mucosal permeability (99mTc-EDTA); format: in vivo, Guinea pigs; conditions: TAP 80 mM pH 6.0 followed by 99mTc-EDTA; Fig. 4; p < 0.01
Procedure: 2,4,6-Triaminopyrimidine (TAP) was used to block the paracellular way. If the resorption of a non resorbable molecule ^99mTc-EDTA complex was enhanced by the addition of a mitochondrial uncoupler and blocked by TAP, then the route followed by the ^99mTc-EDTA complex was unequivocally identified as the paracellular one.
The same materials and methods were used as described in Example 1. However, instead of ^99mc-EDTA TAP was used followed by ^99mTc-EDTA.
100 mg TAP was solved in bidistilled water. The pH was adjusted to 6.0 with HCl 2 N and completed to 10.0 ml. Final concentration was 80 mM. To obtain a physiological osmolarity 16 mg sodium chloride was added.

[5] = system: junctions of the colonic mucosa; assay: Blockade of the paracellular route by anti-diarrhoeal drugs (99mTc-EDTA transfer lumen to blood); format: in vivo; conditions: in combination with DHA; Fig. 5
[6] = system: colon descendens; assay: Temperature increase in ligated colon segment (sample versus reference segment); format: in vivo, Guinea pigs
Procedure: While animals are thermally unstable during narcosis special precautions had to be taken to overcome this problem. Guinea pigs (400 g, males) were fasted 12 hours before the experiment. Anaesthesia was induced by intraperitoneal injection of Ethylurethane (0.9 g.kg^-1). The guinea pig was fixed on a thermostated operation table, monitored by a thermosensible detector rectally applied. Heating was carried out by the operation table itself and two lamps located above the animal.
In the evacuated colon descendens two segments were localised. In both segments, later called sample- and reference segment small measuring electrodes were fixed, displaying continuously the absolute temperature until 0.001°C. Two other electrodes linked by a Wheatstone bridge connection were equally located in the two segments. They measure continuously the temperature difference between the two segments.
In both segments a smooth catheter (I.D. 0.3 mm) was fixed, winded several times in the intestinal cavity. In this catheters 100 µl of the reference- and sample solution was injected.
The intestinal cavity was sealed again. This set up enables the injection of solutes at body temperature. The animal was thermally isolated by gauge. After ten minutes, the wheatstone bridge was equilibrated. An injection of 100 µl air evacuates the catheters so injecting the solutions at perfect body temperature.
The electrodes displaying the absolute temperature were calibrated in a thermostatically controlled water bath between 36.0°C and 38.0°C. […] The electrodes measuring the temperature difference were calibrated by two thermostatically controlled water baths with temperature differences between 0.0°C and 2.0°C. The rectal temperature was directly monitored in °C.
• * reference solution: • Krebsolution - TRIS.HCl buffer 0.1 M pH 8.0 (9/1) osmotic pressure equals 0.9 % Sodium Chloride • * Sample solutions : • - Rhein saturated in reference solution.

[7] = system: isolated mitochondria; assay: Generation speed of ATP in isolated mitochondria (Luciferin-Luciferase); format: biochemical, Phaseolus aureus; conditions: 20 µl Loperamide HCl (5 mg/80 ml water); increasing concentrations DHA; N=15; Fig. 8
Procedure: Mitochondria were isolated from Phaseolus aureus. Beans were allowed to sprout at 28°C during 5 days in the dark. 40 g sprouts were used.
The plant material was homogenised at 3°C with a solution of 0.3M Mannitol, 1 mM Na2EDTA, 0.1% BSA, 0.05% Cysteine. The pH was adjusted to 7.2
During homogenisation 6 N KOH was added to keep the pH at 7.2.
The suspension was centrifuged at 2°C (2000 x g for 15 minutes). The pellet was removed and the supernatant centrifuged again during 20 minutes (8000 x g). The pellet was carefully resuspended in 1 ml of a solution (reaction medium) with 0.3M Mannitol, 10mM phosphate buffer, 10mM KCl, 5mM MgCl2, 0.1% BSA. The pH was adjusted at 7.2.
Mitochondrial quality was assessed by measuring the formation speed of ATP following a ADP injection. ATP was measured by L-Luciferin-Luciferase light emission in the LKB-Luminometer.
The measurement of ATP was carried out in a medium consisting of a 1/1 mixture of reaction medium and Luciferin-Luciferase buffer. The complex composition is : • 200 µl Luciferin-Luciferase solution • 400 µl TRIS.HCl 0.05 M - EDTA 2 mM pH 7.75 • 400 µl reaction medium as explained above • 20 µl mitochondrial suspension • 10 µl Succinate 10 mM pH 7.7 • 20 µl Loperamide HCl (5 mg/80 ml water) or water depending on the experimental set up 1,8 dihydroxyanthraquinone was used in a concentration of 2 mg/100 ml methanol.

[8] = system: paracellular permeability; assay: 99mTc-EDTA transfer from ligated colon segment to kidneys/urine bladder (mucosal permeability); format: in vivo, Guinea pigs; conditions: for colonic permeability: 99mTc-EDTA in ligated colon segment, one hour, Fig. 2 / Fig. 3; for transfer from lumen to blood of 99mTc-EDTA: after previous administration of the uncoupler
Procedure: Guinea pigs of either sex (250-280 g) were fed for one week with pelleted food containing 0.1% 1,8 dihydroxyanthraquimone. For this purpose the necessary amount of Anthraquinone was solved in ether and sprayed over the pelleted foods. The ether was evaporated. The calculated daily administration of 1,8 dihydroxyantraquinone was 20 mg.
The animals were fasted 6 hours before the experiment in order to empty the proximal colonic segment.
Anaesthesia was induced by peritoneal injection of ethyl urethane (0.9 g.kg^-1) and body temperature was maintained at 37°C by a thermostatically controlled heated table.
A midventral abdominal incision was made and the large intestine exposed.
In this ligated colon segment 0.25 ml ^99mTcEDTA was injected. Immediately the abdominal cavity was closed.
The biodistribution of the labelled complex was visualised by a γ-camera Pho/GAMMA®HP-Nuclear; Chicago fitted with a low energy ([…]) convergating collimator.
After one hour the guinea pigs were killed with chloroform and both kidneys, the ligated colon segment and the liver were isolated. Urine was collected from the urine bladder using a syringe. The activity of the samples was measured by a Gamma-counter (Berthold, Gamma-sample changer BF 5300) positioned on 140 ± 10 keV.
In order to determine the influence of the salicylic acid and dinitrophenol on mucosal permeability, 0.25 ml of salicylic acid was injected in the ligated colon segment of untreated animals. After an exposure time of 30 minutes the labelled ^99mTc-EDTA-complex was injected. The procedure continued as described for 1,8 dihydroxyantraquinone.
The instant kit method of Eckelman and Richards (J. Nucl. Med. 11, 761(1970)) was modified. 5.0 mg of Na2EDTA and 0.5 mg of snCl2.2H20/ml was filtered through a 0.22 µ membrane filter and conserved in 3 ml vacuum serum tubes. The kits were kept at -20°C.
Prior to the experiment 1 ml sterile eluate of a ^99mTc-generator (Sterow™ 99m Byk-Malincrodt) with an activity of 2-10 µ Ci was added to the thawed kit. After mixing the efficiency of the complex formulation was assessed by paper chromatography (Whatman N° 1) using physiological water and methylethylketone as mobile phase. Detection was made with a Berthold Scanner. More than 98% of the present ^99mTc was complexed.
100 mg salicylic acid or dinitrophenol was solved in bidistilled water. Sodium hydroxide N was added until complete dissolution. pH was adjusted on 8.5. Water was added to a volume of 10 ml. Osmolarity was adjusted (275 mOsm/1) by adding 23 and 14 mg sodium chloride respectively.

[9] = Saturation concentration in reference solution; conditions: krebs - tris.hcl buffer, pH 8, aqueous buffer
[10] = system: monocellular mucosal layer of the guinea-pig colon; assay: ATP content of lyophilised colon mucosa (firefly bioluminescence); format: in vivo, Guinea pigs; conditions: 3.76 mg rhein in ligated colonic segment
Procedure: The ATP content was measured in the monocellular mucosal layer of the guinea-pig colon.
Guinea pigs with a weight (mean ± 400 g) were fasted 12 hours before the experiments. Anaesthesia was induced by intraperitoneal injection of Ethylurethane (0.9 g.kg^-1).
The segment was filled with 4.0 ml of the solution to be tested. The intestinal cavity was immediately sealed again. After the experiment the colon segment was removed and submerged in liquid Nitrogen. The gut specimen was transferred to the precooled lyophylisator (-80°C, sample -20°C) and lyophilised during 36 hours. Microscopically, the mono cellular mucosa layer was scraped off. One segment, proceeding this way normally yield 1.5 - 2.0 mg lyophilised mucosa cells. 1.000 mg mucosa was weighted carefully on a microbalans and homogenised with 100.00 mg lactose. The ATP level was measured on 3.000 mg of this mixture.
ATP was measured following the firefly-bioluminescence system on a LKB Wallac 1250, fitted with a 1250 display. […]
For the blank experiment 200 µl Luciferine-Luciferase solution was mixed with 500 µl TRIS-EDTA buffer solution. The light emission was measured following the addition of standard amounts of ATP.
3.000 mg of the mucosa/lactose mixture was suspended in 800 µl TRIS-EDTA buffer solution. […] Known quantities of ATP were added.

[11] = 100 µl saturated solution in colon segment versus reference segment, Fig. 10

Compound: CN1CC[C@]23c4c5ccc(O)c4O[C@H]2[C@@H](O)C=C[C@H]3[C@H]1C5 [morphine]
- K+ concentration ([1]; in vivo): completely antagonised
- effect on the secretory effect of rhein ([1]; in vivo): counteracted the secretory effect of rhein
- effect on the secretory effect of rhein, prior perfusion ([1]; in vivo): protects the large intestine from the secretory effect of rhein

Compound: COc1ccc2c(c1)c(CC(=O)O)c(C)n2C(=O)c1ccc(Cl)cc1 [Indomethacin]
- blood glucose fall, of the effect obtained after intramuscular injection of an identical dose [2]: ~50%
- Insulin absorption, of the effect obtained after an intramuscular injection [3]: ~44%

Compound: Nc1cc(N)nc(N)n1 [TAP, 2,4,6-Triaminopyrimidine]
- mucosal permeability following a 1,8-dihydroxyanthraquinone administration [4]: nearly completely restored

Compound: CN(C)C(=O)C(CCN1CCC(O)(c2ccc(Cl)cc2)CC1)(c1ccccc1)c1ccccc1 [loperamide]
- transfer of 99mTc-EDTA complex from lumen to blood [5]: no longer transferred from lumen to blood
- effect on temperature rise following DHA administration ([6]; guinea pig, in vivo): antagonises the temperature rise
- protection against uncoupling effect of DHA on generation speed of ATP [7]: protects mitochondria in vitro against the uncoupling effect of anthraquinones

Compound: O=C1c2cccc(O)c2C(=O)c2c(O)cccc21 [1,8-dihydroxyanthraquinone]
- blood glucose fall, of the effect obtained after intramuscular injection of an identical dose [2]: ~50%
- temperature rise [6, 11]: 0.70 °C
- colonic permeability [8]: remarkable increase of colonic permeability
- transfer from lumen to blood of 99mTc-EDTA [8]: significantly enhanced
- radioactivity leaked from the colon and concentrated in the urine bladder ([8]; one hour after administration of the radioactive complex, 0.1% in food for one week): ~25%

Compound: O=C(O)c1ccccc1O [salicylic acid]
- temperature rise ([6]; other tested mitochondrial uncouplers): show the same results
- colonic permeability [8]: similar, although less pronounced effect
- transfer from lumen to blood of 99mTc-EDTA [8]: significantly enhanced

Compound: O=C(O)c1cc(O)c2c(c1)C(=O)c1cccc(O)c1C2=O [rhein]
- blood glucose fall, of the effect obtained after intramuscular injection of an identical dose [2]: ~50%
- solubility [9]: 0.952 µg/mL (≈ 3.35 µM)
- temperature rise [6, 11]: 0.36 °C
- initial ATP concentration recovered ([10]; after 60 minutes): 67.1%
- initial ATP concentration remaining ([10]; after 90 minutes): 35.9%
- Insulin absorption, of the effect obtained after an intramuscular injection [3]: ~44%

Compound: trigalloylglucose
- effect on the secretory effect of rhein ([1]; perfused after rhein or together with rhein, Fig. 6, Fig. 7): inhibit completely the secretory effect of rhein
